Reference: ChEMBL document CHEMBL1121385, “Phenylalkylamines with potential psychotherapeutic utility. 2. Nuclear substituted 2-amino-1-phenylbutanes” (1980)

Assays:
[1] = tested on: Felis catus; assay: Numerical score on cat behavior was measured at a dose of 10 mg/kg, administered subcutaneously.; type: functional; conditions: route subcutaneous
[2] = species: Rattus norvegicus; assay: Potency to produce a significant increase in avoidance responding in rat relative to BL-3912A; type: functional
[3] = tested on: Rattus norvegicus; assay: Minimal dose (ip) required to produce a significant increase in avoidance responding in rat; type: functional; conditions: read-out: MED
[4] = species: Rattus norvegicus; assay: Evaluated for intertrial interval activity in rat; statistically significant increase; type: functional, organism-based
[5] = species: Rattus norvegicus; assay: Evaluated for intertrial interval activity in rat; NE means no statistically significant activity; type: functional, organism-based
[6] = tested on: Felis catus; assay: Numerical score on cat behavior was measured at a dose of 10 mg/kg administered subcutaneously; type: functional; conditions: route subcutaneous
[7] = species: Rattus norvegicus; assay: Evaluated for intertrial interval activity in rat; NE means no statistically significant effect; type: functional, organism-based

CCCc1cc(OC)c(CC(N)CC)cc1OC.Cl (racemic)
Cat score [1]: 2.5

CCOc1cc(OC)c(C[C@H](N)CC)cc1OC.Cl
Cat score [1]: 1.5

CCCc1cc(OC)c(C[C@H](N)CC)cc1OC.Cl
Cat score [1]: 0.5 | Relative potency [2]: 5 | minimal effective dose [3]: 1 mg/kg | ITI activity [4]: Statistically significant increase

CCCCc1cc(OC)c(C[C@H](N)CC)cc1OC.Cl
ITI activity [5]: No effect | Cat score [1]: 0 | Relative potency [2]: <0.25 | minimal effective dose [3]: > 20 mg/kg

CCCOc1cc(OC)c(C[C@H](N)CC)cc1OC.Cl
Cat score [1]: 1.5

CC[C@@H](N)Cc1cc(OC)c(I)cc1OC.Cl
Cat score [1]: 2.5

CCC(N)Cc1cc(OC)c(C(C)C)cc1OC.Cl (racemic)
Cat score [1]: 0.5

CCC(N)Cc1cc(OC)c(SC)cc1OC.Cl (racemic)
Cat score [1]: 1

CC[C@H](N)Cc1cc(OC)c(C)cc1OC.Cl
Cat score [6]: 0.5

CC[C@@H](N)Cc1cc(OC)c(C(C)C)cc1OC.Cl
Cat score [1]: 0 | Relative potency [2]: <0.25 | minimal effective dose [3]: > 20 mg/kg | ITI activity [7]: No effect

CCc1cc(OC)c(C[C@H](N)CC)cc1OC.Cl
Relative potency [2]: 2.5 | minimal effective dose [3]: 2 mg/kg | ITI activity [4]: Statistically significant increase | Cat score [6]: 3.3

CC[C@H](N)Cc1cc(OC)c(SC)cc1OC.Cl
Cat score [1]: 1

CC[C@@H](N)Cc1cc(OC)c(C)cc1OC.Cl [DIMOXAMINE HYDROCHLORIDE]
Relative potency [2]: 1 | minimal effective dose [3]: 5 mg/kg | ITI activity [7]: No effect | Cat score [6]: 1.3

CC[C@@H](N)Cc1cc(OC)c(Br)cc1OC.Cl
Relative potency [2]: 2.5 | minimal effective dose [3]: 2 mg/kg | ITI activity [4]: Statistically significant increase | Cat score [6]: 3.5

CCCOc1cc(OC)c(CC(N)CC)cc1OC.Cl (racemic)
Cat score [1]: 0

CCc1cc(OC)c(C[C@@H](N)CC)cc1OC.Cl
Cat score [1]: 1

CC[C@@H](N)Cc1cc(OC)c(OC(C)C)cc1OC.Cl
Cat score [1]: 0

CCc1cc(OC)c(CC(N)CC)cc1OC.Cl (racemic)
Cat score [6]: 4

CC[C@@H](N)Cc1cc(OC)ccc1OC.Cl
Cat score ([1]; 10 mg/kg): 0.5

CCC(N)Cc1cc(OC)ccc1OC.Cl (single isomer, unassigned)
Cat score ([1]; 10 mg/kg): 2

CC[C@@H](N)Cc1cc(OC)c(O)cc1OC.Cl
Cat score [1]: 0.5

CC[C@H](N)Cc1cc(OC)c(Br)cc1OC.Cl
Cat score [1]: 2

CCC(N)Cc1cc(OC)c(Br)cc1OC.Cl (racemic)
Cat score [1]: 2

CC[C@@H](N)Cc1cc(OC)c(Cl)cc1OC.Cl
Cat score [1]: 6.5 | Relative potency [2]: 0.25 | minimal effective dose [3]: 20 mg/kg | ITI activity [7]: No effect

CC[C@@H](N)Cc1cc(OC)c(N)cc1OC.Cl
Cat score [1]: 1.5

CC[C@@H](N)Cc1cc(OC)c([N+](=O)[O-])cc1OC.Cl
Cat score [1]: 3.5

CCC(N)Cc1cc(OC)ccc1OC.Cl (racemic)
Cat score [1]: 2
